Assay results taken from US10322131B2, “Hydroxyacid derivatives, a process for their preparation and pharmaceutical compositions containing them” (LES LABORATOIRES SERVIER, priority 2015, dated 2019).
pIC50: −log10 of the molar value. Where two headings read alike, the source gives them in different places.

Columns and labels:
H929 cells = assay: In vitro cytotoxicity (MTT) on H929 multiple myeloma tumour line; type: cell-based; settings: Microculture Tetrazolium Assay
Experimental: The cytotoxicity studies were carried out on the H929 multiple myeloma tumour line.
The cells are distributed onto microplates and exposed to the test compounds for 48 hours.
The cell viability is then quantified by a colorimetric assay, the Microculture Tetrazolium Assay (Cancer Res., 1987, 47, 939-942).

Mcl-1 protein = Mcl-1 protein (Homo sapiens, UniProt Q07820); assay: Inhibition of Mcl-1 by the fluorescence polarisation technique; type: binding; settings: for IC50: fluorescence polarisation test, Fluorescein labelled ligand 1 nM, Mcl-1 protein 5 nM, ~2 hours at r.t., read-out: IC50 (M) Mcl-1 FP
Sequence of Mcl-1 protein (Q07820 whole entry): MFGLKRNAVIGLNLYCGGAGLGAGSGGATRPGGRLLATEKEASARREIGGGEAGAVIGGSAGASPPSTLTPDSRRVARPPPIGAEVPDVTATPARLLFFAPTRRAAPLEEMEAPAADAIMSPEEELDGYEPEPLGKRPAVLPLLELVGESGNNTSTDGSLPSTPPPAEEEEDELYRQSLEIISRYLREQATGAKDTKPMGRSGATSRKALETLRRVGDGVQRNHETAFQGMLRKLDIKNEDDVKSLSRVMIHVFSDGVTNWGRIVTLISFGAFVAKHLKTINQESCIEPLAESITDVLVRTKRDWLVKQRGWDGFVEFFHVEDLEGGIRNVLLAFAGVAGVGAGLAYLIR
In short: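 Competitive FP displacement of fluorescein-labelled peptide ligand (1 nM final) from Mcl-1 (5 nM final) in HEPES 10 mM, 150 mM NaCl, 0.05% Tween 20, pH 7.4, 5% DMSO final. Read after ~2 h at r.t.; IC50 from 11-point 4-parameter logistic fit of % mP reduction.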

[1] = Homo sapiens, NCI-H929, exposed 48 hours

Row | IC50 (Mcl-1 protein) | SMILES | IC50 (H929 cells; [1]) | IC50 (H929 cells; exposed 48 hours) | pIC50 (Mcl-1 protein)
1 | 8.4e-09 M | Cc1c(-c2c(-c3ccc(F)cc3)sc3ncnc(OC(Cc4ccccc4OCc4ccnc(-c5cccc(O)c5)n4)C(=O)O)c23)ccc(OCCN2CCN(C)CC2)c1Cl [Example 1, (2R)-2-{[(5Sa)-5-{3-chloro-2-methyl-4-[2-(4-methylpiperazin-1-yl)ethoxy]phenyl}-6-(4-fluorophenyl)thieno[2,3-d]pyrimidin-4-yl]oxy}-3-(2-{[2-(3-hydroxyphenyl)pyrimidin-4-yl]methoxy}phenyl)propanoic acid] | 9.31 nM |  | 
2 | 2.24e-08 M | COCCOCCOCCOc1ccc(-c2nccc(COc3ccccc3CC(Oc3ncnc4sc(-c5ccc(F)cc5)c(-c5ccc(OCCN6CCN(C)CC6)c(Cl)c5C)c34)C(=O)O)n2)cc1 [Example 33, (2R)-2-{[(5Sa)-5-{3-chloro-2-methyl-4-[2-(4-methylpiperazin-1-yl)ethoxy]phenyl}-6-(4-fluorophenyl)thieno[2,3-d]pyrimidin-4-yl]oxy}-3-(2-{[2-(4-{2-[2-(2-methoxyethoxy)ethoxy]ethoxy}phenyl)pyrimidin-4-yl]methoxy}phenyl)propanoic acid] | 1.18 nM |  | 
3 | 2.7e-09 M | Cc1c(-c2c(-c3ccc(F)cc3)sc3ncnc(OC(Cc4ccccc4OCc4ccnc(-c5ccc(COC6OC(CO)C(O)C(O)C6O)cc5)n4)C(=O)O)c23)ccc(OCCN2CCN(C)CC2)c1Cl [Example 23, (2R)-2-{[(5Sa)-5-{3-chloro-2-methyl-4-[2-(4-methylpiperazin-1-yl)ethoxy]phenyl}-6-(4-flurophenyl)thieno[2,3-d]pyrimidin-4-yl]oxy}-3-{2-[(2-{4-[(α-D-mannopyranosyloxy)methyl]phenyl}pyrimidin-4-yl)methoxy]phenyl}propanoic acid] |  | 39.7 nM | 
4 | 4.45e-09 M | Cc1c(-c2c(-c3ccc(F)cc3)sc3ncnc(OC(Cc4ccccc4OCc4ccnc(-c5cccc(COC(=O)NCCN6CCOCC6)c5)n4)C(=O)O)c23)ccc(OCCN2CCN(C)CC2)c1Cl [Example 42, (2R)-2-{[(5Sa)-5-{3-chloro-2-methyl-4-[2-(4-methylpiperazin-1-yl)ethoxy]phenyl}-6-(4-fluorophenyl)thieno[2,3-d]pyrimidin-4-yl]oxy}-3-{2-[(2-{3-[({[2-(morpholin-4-yl)ethyl]carbamoyl}oxy)methyl]phenyl}pyrimidin-4-yl)methoxy]phenyl}propanoic acid] | 44.5 nM |  | 
5 | 3.75e-09 M | COCCOCCOCCOc1ccccc1-c1nccc(COc2ccccc2CC(Oc2ncnc3sc(-c4ccc(F)cc4)c(-c4ccc(OCCN5CCN(C)CC5)c(Cl)c4C)c23)C(=O)O)n1 [Example 7, (2R)-2-{[(5Sa)-5-{3-chloro-2-methyl-4-[2-(4-methylpiperazin-1-yl)ethoxy]phenyl}-6-(4-flurophenyl)thieno[2,3-d]pyrimidin-4-yl]oxy}-3-(2-{[2-(2-{2-[2-(2-methoxyethoxy)ethoxy]ethoxy}phenyl)pyrimidin-4-yl]methoxy}phenyl)propanoic acid] |  | 4.45 nM | 

Continued, compound first:

Row | SMILES | IC50 (Mcl-1 protein) | IC50 (H929 cells; [1]) | IC50 (H929 cells; exposed 48 hours) | pIC50 (Mcl-1 protein)
6 | COC1OC(COc2ccc(-c3nccc(COc4ccccc4CC(Oc4ncnc5sc(-c6ccc(F)cc6)c(-c6ccc(OCCN7CCN(C)CC7)c(Cl)c6C)c45)C(=O)O)n3)cc2)C(OC)C(OC)C1OC [Example 19, methyl 6-O-{4-[4-({2-[(2R)-2-carboxy-2-{[(5Sa)-5-{3-chloro-2-methyl-4-[2-(4-methylpiperazin-1-yl)ethoxy]phenyl}-6-(4-fluorophenyl)thieno[2,3-d]pyrimidin-4-yl]oxy}ethyl]phenoxy}methyl)pyrimidin-2-yl]phenyl}-2,3,4-tri-O-methyl-α-D-mannopyranoside] | 4.95e-09 M | 2.47 nM |  | 
7 | COCCN(CCOC)C(=O)OCc1cccc(-c2nccc(COc3ccccc3CC(Oc3ncnc4sc(-c5ccc(F)cc5)c(-c5ccc(OCCN6CCN(C)CC6)c(Cl)c5C)c34)C(=O)O)n2)c1 [Example 45, (2R)-3-[2-({2-[3-({[bis(2-methoxyethyl)carbamoyl]oxy}methyl)phenyl]pyrimidin-4-yl}methoxy)phenyl]-2-{[(5Sa)-5-{3-chloro-2-methyl-4-[2-(4-methylpiperazin-1-yl)ethoxy]phenyl}-6-(4-fluorophenyl)thieno[2,3-d]pyrimidin-4-yl]oxy}propanoic acid] | 3.2e-09 M | 4.58 nM |  | 
8 | Cc1c(-c2c(-c3ccc(F)cc3)sc3ncnc(OC(Cc4ccccc4OCc4ccnc(-c5cccc(COC(=O)N6CCC(N7CCCCC7)CC6)c5)n4)C(=O)O)c23)ccc(OCCN2CCN(C)CC2)c1Cl [Example 37, (2R)-3-(2-{[2-(3-{[(1,4′-bipiperidin-1′-ylcarbonyl)oxy]methyl}phenyl)pyrimidin-4-yl]methoxy}phenyl)-2-{[(5Sa)-5-{3-chloro-2-methyl-4-[2-(4-methylpiperazin-1-yl)ethoxy]phenyl}-6-(4-fluorophenyl)thieno[2,3-d]pyrimidin-4-yl]oxy}propanoic acid] | 6.3e-09 M | 20.5 nM |  | 
9 | Cc1c(-c2c(-c3ccc(F)cc3)sc3ncnc(OC(Cc4ccccc4OCc4ccnc(-c5ccccc5COCCO)n4)C(=O)O)c23)ccc(OCCN2CCN(C)CC2)c1Cl [Example 10, (2R)-2-{[(5Sa)-5-{3-chloro-2-methyl-4-[2-(4-methylpiperazin-1-yl)ethoxy]phenyl}-6-(4-fluorophenyl)thieno[2,3-d]pyrimidin-4-yl]oxy}-3-{2-[(2-{2-[(2-hydroxyethoxy)methyl]phenyl}pyrimidin-4-yl)methoxy]phenyl}propanoic acid] | 1.09e-08 M | 2.79 nM |  | 
10 | Cc1c(-c2c(-c3ccc(F)cc3)sc3ncnc(OC(Cc4ccccc4OCc4ccnc(-c5ccc(OP(=O)(O)O)cc5)n4)C(=O)O)c23)ccc(OCCN2CCN(C)CC2)c1Cl [Example 29, 4-[4-({2-[(2R)-2-carboxy-2-{[(5Sa)-5-{3-chloro-2-methyl-4-[2-(4-methylpiperazin-1-yl)ethoxy]phenyl}-6-(4-fluorophenyl)thieno[2,3-d]pyrimidin-4-yl]oxy}ethyl]phenoxy}methyl)pyrimidin-2-yl]phenyl phosphate] |  | 22.7 nM |  | 8.34
11 | COCCOCc1ccccc1-c1nccc(COc2ccccc2CC(Oc2ncnc3sc(-c4ccc(F)cc4)c(-c4ccc(OCCN5CCN(C)CC5)c(Cl)c4C)c23)C(=O)O)n1 [Example 9, (2R)-2-{[(5Sa)-5-{3-chloro-2-methyl-4-[2-(4-methylpiperazin-1-yl)ethoxy]phenyl}-6-(4-fluorophenyl)thieno[2,3-d]pyrimidin-4-yl]oxy}-3-{2-[(2-{2-[(2-methoxyethoxy)methyl]phenyl}pyrimidin-4-yl)methoxy]phenyl}propanoic acid] | 8.15e-09 M | 1.4 nM |  | 
12 | COC1OC(COc2cccc(-c3nccc(COc4ccccc4CC(Oc4ncnc5sc(-c6ccc(F)cc6)c(-c6ccc(OCCN7CCN(C)CC7)c(Cl)c6C)c45)C(=O)O)n3)c2)C(OC)C(OC)C1OC [Example 17, methyl 6-O-{3-[4-({2-[(2R)-2-carboxy-2-{[(5Sa)-5-{3-chloro-2-methyl-4-[2-(4methylpiperazin-1-yl)ethoxy]phenyl}-6-(4-fluorophenyl)thieno[2,3-d]pyrimidin-4-yl]oxy}ethyl]phenoxy}methyl)pyrimidin-2-yl]phenyl}-2,3,4-tri-O-methyl-α-D-mannopyranoside] | 4.8e-09 M | 3.03 nM |  | 
13 | Cc1c(-c2c(-c3ccc(F)cc3)sc3ncnc(OC(Cc4ccccc4OCc4ccnc(-c5cccc(COC(=O)NCCN(C)C)c5)n4)C(=O)O)c23)ccc(OCCN2CCN(C)CC2)c1Cl [Example 43, (2R)-2-{[(5Sa)-5-{3-chloro-2-methyl-4-[2-(4-methylpiperazin-1-yl)ethoxy]phenyl}-6-(4-fluorophenyl)thieno[2,3-d]pyrimidin-4-yl]oxy}-3-{2-[(2-{3-[({[2-(dimethylamino)ethyl]carbamoyl}oxy)methyl]phenyl}pyrimidin-4-yl)methoxy]phenyl}propanoic acid] | 4.55e-09 M | 31.1 nM |  | 
14 | Cc1c(-c2c(-c3ccc(F)cc3)sc3ncnc(OC(Cc4ccccc4OCc4ccnc(-c5ccccc5COCC(O)CO)n4)C(=O)O)c23)ccc(OCCN2CCN(C)CC2)c1Cl [Example 27, (2R)-2-{[(5Sa)-5-{3-chloro-2-methyl-4-[2-(4-methylpiperazin-1-yl)ethoxy]phenyl}-6-(4-fluorophenyl)thieno[2,3-d]pyrimidin-4-yl]oxy}-3-{2-[(2-{2-[(2,3-dihydroxypropoxy)methyl]phenyl}pyrimidin-4-yl)methoxy]phenyl}propanoic acid] | 2.2e-09 M | 13.9 nM |  | 
